Test results from patent US6528510B1, “HIV protease inhibitors” (Warner-Lambert Company, priority 1998, dated 2003).
Read-outs that look alike come from different tables or passages of the source.

Legend:
[1] = Cellular toxicity in uninfected CEM cells, XTT (TC50); conditions: human, uninfected CEM cells (lymphocyte derived)
Method: (§1) Compound concentrations were 0.32, 1, 3.2, 10, 32, and 100 uM.

[2] = Rat blood levels after IV dosing; type: in vivo; conditions: plasma, rats, IV dose of 10 mg/kg
Method: The procedure for pharmacokinetics analysis in dogs and rats was similar. For dog studies, two dogs received a single oral 10 mg/kg dose of the HIV protease inhibitor as a solution. The protease inhibitor was dissolve in 0.1N NaOH followed by buffering or diluting with isotonic phosphate buffer or water depending on solubility. For rat studies. two male rats received a single oral 10 mg/kg gavage dose of the HIV protease inhibitor suspended in 0.5% methylcellulose. For the IV administration, the compounds were dissolved in 0.1N sodium hydroxide at a concentration of 10 mg/ml. The IV dose was given bolus. Blood samples were collected prior to dosing and at 0.25, 0.5, 1, 1.5, 2, 3, 4, 8, 12, and 24 hours postdose. Plasma samples were analyzed for the HIV protease inhibitor using a HPLC procedure. The method involved plasma protein precipitation with acetonitrile, reverse-phase chromatographic separation of the HIV protease inhibitor and internal standard, and quantitation by UV detection. Some plasma samples were concentrated by evaporation prior to injection. Pharmacokinetic parameters were determined by noncompartmental analysis of individual rat-plasma concentration-time curves using WinNonlin. Maximum concentration (Cmax) and time for these to occur (tmax) were recorded as observed. Area under concentration-time curve (AUC) values were obtained using the linear trapezoidal rule.

[3] = system: HIV infected lymphocyte derived CEM cells; test: Cellular infection assay in CEM cells, XTT cytopathic procedure (EC50); conditions: for TI (therapeutic index, TC50/EC50): CEM cells; for EC50: Human immunodeficiency virus 1, CCRF-CEM, read-out: Antiviral Efficacy EC50
Method: as §1

[4] = molecular target: T1, Recombinant HIV-1 protease (Human immunodeficiency virus type 1 group M subtype B, UniProt P04585); test: HIV protease assay (Ki determination, HPLC readout of substrate III cleavage); type: biochemical
T1 construct: Recombinant HIV-1 protease (>96% purity); purchased Bachem Bioscience, Inc. (King of Prussia, Pa.)
Method: Recombinant HIV-1 protease (>96% purity) and HIV protease substrate III (the undecapeptide H-His-Lys-Ala-Arg-Val-Leu-Nph-Glu-Ala-Nle-Ser-NH2, 97% purity) were purchased from Bachem Bioscience, Inc. (King of Prussia, Pa.).
The methods employed follow the procedures of Tummino, et al., Archives of Biochemistry and Biophysics, 1995;316:523). […] (total volume, […]). […] The final inhibitor concentrations used were 0 (0.1, 0.2, in some experiments), 0.5, 1, 2, 5, 10, 20, 50, and 100 μM. The solution was mixed, incubated for 5 minutes and the reaction quenched by addition of trifluoracetic acid, 2% final. The (leu-p-nitro-phe) bond of the substrate is cleaved by the enzyme and substrate arid products separated by reverse-phase HPLC. Absorbance was measured at 220 nm, peak areas determined, and percentage conversion to product used to calculate percentage control (=[% conversion (+inhibitor)/% conversion (−inhibitor)]×100).

[5] = Mouse blood levels after oral dosing; type: in vivo, Charles River CD-1 mice; conditions: CD-1, mouse, plasma, mice, oral dose of 25 mg/kg; for Cmax: read-out: Cmax (maximum concentration reached within the plasma); for half-life: read-out: T 1/2 (half life) (converted)
Method: Charles River CD-1 mice were dosed with a 25 mg/kg drug solution orally by gavage. For oral dosing the compounds were dissolved in 0.1N NaOH (20% final volume) and then 0.5% methylcellulose (80% final volume) was added. Blood was drawn and pooled from 5 mice at each time point via heart puncture and was placed in a 15 mL centrifuge tube containing heparin. The plasma stored in 200 μL aliquots at −80° C. until assayed.
Plasma was thawed at room temperature and then 400 μL of acetonitrile was added to each vial and vortexed. Following centrifugation the supernatant was removed and evaporated in a nitrogen evaporator at 48° C. Residue was then resolublized in 200 μL of a 75% water/25% CH3CN solution for HPLC analysis. HPLC analysis used a Zorbax RX-C8 column (4.6×150 mm) with a 25 mM potassium phosphate buffer with 0.1% TFA, pH 3.0. Mobile phases consisted of varying percentages of two buffer mixtures: Buffer A—90% buffer, 10% CH3CN, and Buffer B—30% buffer, 70% CH3CN.
A standard curve ranging from 0.5 to 50 μg/mL was used for each drug tested. Ten times final concentration solutions of drug in water were prepared from stock solutions of 1 mg/mL drug in DMSO. The final 1:10 dilution was then done in mouse plasma obtained from mice described above.

[6] = recombinant HIV-1 protease, read-out: Inhib of HIV Protease KI

CC(C)C1(CCc2ccccc2CO)CC(O)=C(Sc2cc3cc[nH]c3cc2C(C)(C)C)C(=O)O1 (racemic) [Example 69, 4-Hydroxy-3-(6-tert-butyl-indol-5-ylsulfanyl)-6-[2-(2-hydroxymethyl-phenyl)-ethyl]6-isopropyl-5,6-dihydropyran-2-one]
CC50 [1]: 55000 nM | C0 [2]: 335 µM | half-life ([2]; read-out: T 1/2 (half life) (converted)): 4.5 h | TI (therapeutic index, TC50/EC50) [3]: 306 | EC50 [3]: 180 nM | Ki [4]: 0.67 nM

CC(C)C1(CCc2ccsc2)CC(O)=C(Sc2cc3sc(N)nc3cc2C(C)(C)C)C(=O)O1 (racemic) [Example 82]
CC50 [1]: 76000 nM | TI (therapeutic index, TC50/EC50) [3]: 109 | EC50 [3]: 700 nM | Ki [4]: 1.1 nM

Cc1c(F)cccc1CCC1(C(C)C)CC(O)=C(Sc2cc3sc(N)nc3cc2C(C)(C)C)C(=O)O1 (racemic) [Example 84, 3-(2-Amino-5-tert-butyl-benzothiazol-6-ylsulfanyl)-6-[2-(3-fluoro-2-methyl-phenyl)-ethyl]-4-hydroxy-6-isopropyl-5,6-dihydro-pyran-2-one]
CC50 [1]: 93000 nM | TI (therapeutic index, TC50/EC50) [3]: 198 | EC50 [3]: 470 nM | Ki [4]: 0.8 nM

Cc1cc(SC2=C(O)CC(CCc3csc(N)n3)(C(C)C)OC2=O)c(C(C)(C)C)cc1CO (racemic) [Example 89, 6-[2-(2-Amino-thiazol-4-yl)-ethyl]-3-(2-tert-butyl-4-hydroxymethyl-5-methyl-phenylsulfanyl)-4-hydroxy-6-isopropyl-5,6-dihydro-pyran-2-one]
CC50 [1]: > 200000 nM | TI (therapeutic index, TC50/EC50) [3]: >57 | EC50 [3]: 3500 nM | Ki [4]: 0.95 nM

Cc1cc(SC2=C(O)CC(CCc3ccncc3)(C(C)C)OC2=O)c(C(C)(C)C)cc1CO (centres unmarked) [Example 1, 3-(2-tert-Butyl-4-hydroxymethyl-5-methyl-phenylsulfanyl)-4-hydroxy-6-isopropyl-6-(2-pyridin-4-yl-ethyl)-5,6-dihydro-pyran-2-one]
CC50 [1]: 296000 nM | TI (therapeutic index, TC50/EC50) [3]: 197 | EC50 [3]: 1500 nM | Ki [4, 6]: 1.5 nM

Cc1cc(SC2=C(O)CC(CCc3ccoc3)(C(C)C)OC2=O)c(C(C)(C)C)cc1CO (centres unmarked) [Example 4, 3-(2-tert-Butyl-4-hydroxymethyl-5-methyl-phenylsulfanyl)-6-(2-furan-3-yl-ethyl)-4-hydroxy-6-isopropyl-5,6-dihydro-pyran-2-one]
Cmax [5]: 54 µM | half-life [5]: 5.6 h | CC50 [1]: 199000 nM | TI (therapeutic index, TC50/EC50) [3]: 199 | EC50 [3]: 1000 nM | Ki [4, 6]: 0.35 nM

Cc1cc(SC2=C(O)CC(CCc3ccco3)(C(C)C)OC2=O)c(C(C)(C)C)cc1CO (centres unmarked) [Example 5, 3-(2-tert-Butyl-4-hydroxymethyl-5-methyl-phenylsulfanyl)-6-(2-furan-2-yl-ethyl)-4-hydroxy-6-isopropyl-5,6-dihydro-pyran-2-one]
CC50 [1]: 190000 nM | TI (therapeutic index, TC50/EC50) [3]: 253 | EC50 [3]: 750 nM | Ki [4, 6]: 0.78 nM

Cc1cc(SC2=C(O)CC(CCc3ccsc3)(C(C)C)OC2=O)c(C(C)(C)C)cc1CO (centres unmarked) [Example 7, 3-(2-tert-Butyl-4-hydroxymethyl-5-methyl-phenylsulfanyl)-4-hydroxy-6-isopropyl-6-(2-thiophen-3-yl-ethyl)-5,6-dihydro-pyran-2-one]
Cmax [5]: 40 µM | half-life [5]: 3.5 h | CC50 [1]: 110000 nM | TI (therapeutic index, TC50/EC50) [3]: 366 | EC50 [3]: 300 nM | Ki [4, 6]: 0.17 nM

Cc1cc(SC2=C(O)CC(CCc3cccs3)(C(C)C)OC2=O)c(C(C)(C)C)cc1CO (centres unmarked) [Example 8, 3-(2-tert-Butyl-4-hydroxymethyl-5-methyl-phenylsulfanyl)-4-hydroxy-6-isopropyl-6-(2-thiophen-2-yl-ethyl)-5,6-dihydro-pyran-2-one]
CC50 [1]: 80500 nM | TI (therapeutic index, TC50/EC50) [3]: 161 | EC50 [3]: 500 nM | Ki [4, 6]: 0.35 nM

Cc1cc(SC2=C(O)CC(CCc3csc(CO)c3)(C(C)C)OC2=O)c(C(C)(C)C)cc1CO (centres unmarked) [Example 9]
CC50 [1]: 210000 nM | TI (therapeutic index, TC50/EC50) [3]: 117 | EC50 [3]: 1800 nM | Ki [4, 6]: 0.19 nM

Cc1cc(SC2=C(O)CC(CCc3ccsc3CO)(C(C)C)OC2=O)c(C(C)(C)C)cc1N (centres unmarked) [Example 11, 3-(4-Amino-2-tert-butyl-5-methyl-phenylsulfanyl)-4-hydroxy-6-[2-(2-hydroxymethyl-thiophen-3-yl)-ethyl]-6-isopropyl-5,6-dihydro-pyran-2-one]
CC50 [1]: 133000 nM | TI (therapeutic index, TC50/EC50) [3]: 458 | EC50 [3]: 290 nM | Ki [4, 6]: 0.23 nM

CC(C)c1cc2nc(N)sc2cc1SC1=C(O)C[C@@](CCc2ccccc2)(C(C)C)OC1=O [Example 14, (S)-3-(2-Amino-5-isopropyl-benzothiazol-6-ylsulfanyl)-4-hydroxy-6-isopropyl-6-phenethyl-5,6-dihydro-pyran-2-one]
CC50 [1]: 75000 nM | TI (therapeutic index, TC50/EC50) [3]: 30 | EC50 [3]: 2500 nM | Ki [4, 6]: 0.67 nM

CC(C)C1(CCc2ccccc2CO)CC(O)=C(Sc2sc3ccccc3c2C(C)(C)C)C(=O)O1 (centres unmarked) [Example 22, 3-(3-tert-Butyl-benzo[b]thiophen-2-yl-sulfanyl)-4-hydroxy-6-[2-(2-hydroxymethyl-phenyl)-ethyl]-6-isopropyl-5,6-dihydro-pyran-2-one]
CC50 [1]: 66000 nM | TI (therapeutic index, TC50/EC50) [3]: 43 | EC50 [3]: 1500 nM | Ki [4, 6]: 0.85 nM

Cc1csc(CCC2(C(C)C)CC(O)=C(Sc3cc(C)c(CO)cc3C(C)(C)C)C(=O)O2)n1 (centres unmarked) [Example 26, 3-(2-tert-Butyl-4-hydroxymethyl-5-methyl-phenylsulfanyl)-4-hydroxy-6-isopropyl-6-[2-(4-methyl-thiazol-2-yl)-ethyl]-5,6-dihydro-pyran-2-one]
CC50 [1]: 171000 nM | TI (therapeutic index, TC50/EC50) [3]: 213 | EC50 [3]: 800 nM | Ki [4, 6]: 0.45 nM

CC(C)c1cc2ncsc2cc1SC1=C(O)C[C@@](CCc2ccc(O)cc2)(C(C)C)OC1=O [Example 48, (S)-4-Hydroxy-6-[2-(4-hydroxy-phenyl)-ethyl]-6-isopropyl-3-(5-isopropyl-benzothiazol-6-ylsulfanyl)-5,6-dihydro-pyran-2-one]
CC50 [1]: 29000 nM | TI (therapeutic index, TC50/EC50) [3]: 78 | EC50 [3]: 370 nM | Ki [4]: 0.4 nM

CC(C)[C@]1(CCc2ccccc2)CC(O)=C(Sc2cc3cc[nH]c3cc2C(C)(C)C)C(=O)O1 [Example 73, (S)-3-(6-tert-Butyl-1H-indol-5-yl-sulfanyl)-4-hydroxy-6-isopropyl-6-(2-phenethyl)-5,6-dihydro-pyran-2-one]
CC50 [1]: 42000 nM | TI (therapeutic index, TC50/EC50) [3]: 69 | EC50 [3]: 610 nM | Ki [4]: 0.54 nM

CC(C)[C@]1(CCc2ccccc2)CC(O)=C(Sc2cc3sc(NS(C)(=O)=O)nc3cc2C(C)(C)C)C(=O)O1 [Example 79, (S)-N-[5-tert-Butyl-6-(4-hydroxy-6-isopropyl-2-oxo-6-phenethyl-5,6-dihydro-2H-pyran-3-ylsulfanyl)-benzothiazol-2-yl]-methanesulfonamide]
CC50 [1]: 125000 nM | TI (therapeutic index, TC50/EC50) [3]: 56 | EC50 [3]: 2200 nM | Ki [4]: 2.1 nM
